{"source": "patent US10945433B2", "about": "“Method for treating coffee rust, citrus black spot, citrus scab and banana black sigatoka diseases” (Bayer CropScience Aktiengesellschaft, priority 2015, dated 2021)", "key": {"[1]": {"assay": "log P determination by HPLC on reversed-phase column (EEC Directive 79/831 Annex V.A8)", "type": "physicochemical", "method": "In table 1, the log P values were determined in accordance with EEC Directive 79/831 Annex V.A8 by HPLC (High Performance Liquid Chromatography) on a reversed-phase column (C 18), using the method described below:\nTemperature: 40° C.; Mobile phases: 0.1% aqueous formic acid and acetonitrile; linear gradient from 10% acetonitrile to 90% acetonitrile.\nCalibration was carried out using unbranched alkan-2-ones (comprising 3 to 16 carbon atoms) with known log P values (determination of the log P values by the retention times using linear interpolation between two successive alkanones). lambda-max-values were determined using UV-spectra from 200 nm to 400 nm and the peak values of the chromatographic signals."}, "[2]": {"test_system": "Hemileia vastatrix", "assay": "Control of rust (Hemileia vastatrix) on coffee crop, field trials", "type": "in vivo", "details": "50 g a.i./ha, coffee leaves, foliar sprays, vs untreated", "method": "Four field trials were implemented in Brazil in 2013 and 2014 to evaluate the performance of compounds against Hemileia vastatrix on Coffee.\nThe trials were carried out according to standard experimental practice to protect the canopy from the rust, responsible to defoliation and then yield losses. A typical fungicide formulation containing 100 g of compound per liter was applied in consecutive foliar sprays at 3 occasions every 30 to 50 days in most of the trials. Spray volumes vary from 400 L to 500 L/Ha.\nAssessments were realized on leaves—Data are expressed in % efficacy against rust on leaves compared to untreated plants."}, "[3]": {"test_system": "Guignardia citricarpa", "assay": "Control of black spot (Guignardia citricarpa) on citrus crop, field trials", "type": "in vivo", "details": "2000 to 3000 L/Ha", "description": "(§1) Five field trials were implemented in South Africa, Brazil and Japan in 2013 and 2014 to evaluate the performance of compounds against two main diseases having high effect on marketable yield: Elsinoe fawcettii and Guignardia citricarpa are hosted by many citrus species. Both are able to infest fruits and both are quarantine pathogens limiting the exportation outside of the growing countries. The protection against these two pathogens gives a clear advantage for farmers to be present on the export market.\n(§2) The trials were carried out according to standard experimental practice to protect the canopy including fruits in each country. A typical fungicide formulation containing 100 g of compound per liter was applied in consecutive foliar sprays at 5 to 6 occasions every month to control black spot and at 1 to 3 occasions every 14 days to control Scab infections. Spray volumes vary from 2000 L to 3000 L/Ha."}, "[4]": {"test_system": "Elsinoe fawcettii", "assay": "Control of scab (Elsinoe fawcettii) on citrus crop, field trials", "type": "in vivo", "details": "3000 L/Ha", "description": "as §1, §2"}, "[5]": {"test_system": "Mycosphaerella fijiensis", "assay": "Control of Black Sigatoka on banana crop, field trials", "type": "in vivo", "details": "for Number healthy Leaves 2DAT7: Trial A, untreated 8.5; for Number healthy Leaves 2DAT7 / Number healthy Leaves 25DAT13: per banana plant at end of trial; for Number healthy Leaves 25DAT13: Trial B, untreated 8.7", "method": "Two field trials were implemented in 2013 in Costa Rica and Philippines to evaluate the performance of compounds against Mycosphaerella fijiensis infection on Banana.\nA typical fungicide formulation containing 100 g of compound per liter was applied every 7 to 12 days in consecutive foliar sprays. The trials were carried out according to standard experimental practice with spay adjuvant and mineral oil used in tank mix as it is usual on banana plantation in each country.\nData are expressed in Number of healthy leaves present at the end of the trial on each Banana plant (more leaves present mean better quantity and quality of harvest)."}}, "data": [{"compound": "CCc1ccc(F)cc1CN(C(=O)c1c(C(F)F)nn(C)c1F)C1CC1", "note": "[Compound A6, N-cyclopropyl-3-(difluoromethyl)-N-(2-ethyl-5-fluorobenzyl)-5-fluoro-1-methyl-1H-pyrazole-4-carboxamide]", "values": [{"measurement": "chromatographic logP", "setting": "[1]; reversed-phase C18 HPLC column, HPLC, reversed-phase C 18, 40° C., 0.1% aqueous formic acid and acetonitrile gradient", "value": 3.14}]}, {"compound": "N-cyclopropyl-3-(difluoromethyl)-5-fluoro-N-(2-isopropylbenzyl)-1-methyl-1H-pyrazole-4-carbothio-amide [Compound A20]", "values": [{"measurement": "logP", "setting": "[1]", "value": 4.36}]}, {"compound": "CC(C)c1ccc(Cl)cc1CN(C(=O)c1c(C(F)F)nn(C)c1F)C1CC1", "note": "[Compound A5, N-(5-chloro-2-isopropylbenzyl)-N-cyclopropyl-3-(difluoromethyl)-5-fluoro-1-methyl-1H-pyrazole-4-carboxamide]", "values": [{"measurement": "% Efficacy (Abbott)", "setting": "[2]; Trial A", "value": 84, "unit": "%"}, {"measurement": "% Efficacy (Abbott)", "setting": "[2]; Trial B", "value": 61, "unit": "%"}, {"measurement": "% Efficacy (Abbott)", "setting": "[2]; Trial C", "value": 95, "unit": "%"}, {"measurement": "% Efficacy (Abbott)", "setting": "[2]; Trial D", "value": 73, "unit": "%"}, {"measurement": "% Efficacy (Abbott)", "setting": "[3]; Trial A, 10 g a.i./100 L", "value": 73, "unit": "%"}, {"measurement": "% Efficacy (Abbott)", "setting": "[3]; Trial A, 15 g a.i./100 L", "value": 70, "unit": "%"}, {"measurement": "% Efficacy (Abbott)", "setting": "[3]; Trial B, 10 g a.i./100 L", "value": 72, "unit": "%"}, {"measurement": "% Efficacy (Abbott)", "setting": "[3]; Trial B, 15 g a.i./100 L", "value": 83, "unit": "%"}, {"measurement": "% Efficacy (Abbott)", "setting": "[3]; Trial C, 10 g a.i./100 L", "value": 91.3, "unit": "%"}, {"measurement": "% Efficacy (Abbott)", "setting": "[3]; Trial C, 15 g a.i./100 L", "value": 93.9, "unit": "%"}, {"measurement": "% Efficacy (Abbott)", "setting": "[4]; Trial A, 2.5 g a.i./100 L", "value": 96, "unit": "%"}, {"measurement": "% Efficacy (Abbott)", "setting": "[4]; Trial A, 5 g a.i./100 L", "value": 95, "unit": "%"}, {"measurement": "% Efficacy (Abbott)", "setting": "[4]; Trial B, 2.5 g a.i./100 L", "value": 92, "unit": "%"}, {"measurement": "% Efficacy (Abbott)", "setting": "[4]; Trial B, 5 g a.i./100 L", "value": 70, "unit": "%"}, {"measurement": "average gain in leaves per plant", "setting": "[5]; 6.25 g ai/ha, banana, Black Sigatoka", "value": "about +3 leaves per plant"}, {"measurement": "Number healthy Leaves 2DAT7", "setting": "[5]; 6.25 g a.i./ha", "value": 11.5}, {"measurement": "Number healthy Leaves 2DAT7", "setting": "[5]; 12.5 g a.i./ha", "value": 12.2}, {"measurement": "Number healthy Leaves 2DAT7", "setting": "[5]; 25 g a.i./ha", "value": 12}, {"measurement": "Number healthy Leaves 25DAT13", "setting": "[5]; 6.25 g a.i./ha", "value": 13.4}, {"measurement": "Number healthy Leaves 25DAT13", "setting": "[5]; 12.5 g a.i./ha", "value": 14.4}, {"measurement": "Number healthy Leaves 25DAT13", "setting": "[5]; 25 g a.i./ha", "value": 16.2}]}, {"compound": "O=C(Nc1ccccc1-c1ccc(Cl)cc1)c1cccnc1Cl", "note": "[Boscalid, reference compound]", "values": [{"measurement": "Number healthy Leaves 25DAT13", "setting": "[5]; 150 g a.i./ha", "value": 13.1}]}]}
